Measurements from patent US20060229433A1, “Modified antiviral peptides with increased activity and cell membrane affinity” (priority 2003, published 2006).

Test system: C8166 cells
Assay: Toxicity on C8166 cells (daily cell count, trypan-blue exclusion)
Type: cell-based
Conditions: at doses up to 10 μM
Experimental: Samples of 3×10^5/100 μL C8166 cells were preincubated in 96-well microtiter plates in culture medium containing various concentrations of peptide. After a 1 h treatment at 37° C., 100 μl of diluted viral solution of HIV-1 was added. The cells were exposed to the virus for 1 h at 37° C. at a multiplicity of infection of 1000 TCID50 per ml. The cells were washed three times and cultured at 3×10^5/ml of R10 with the treatment in 24-well plates incubated at 37° C. C8166 culture medium was replaced at Day-4 post-infection. The treatment was permanent before virus adsorption, during virus adsorption and after infection. Assays on C8166 cells have been performed at least twice and in duplicate. Toxicity was evaluated by daily cell count and trypan-blue exclusion assay. Infection of C8166 T-cells with HIV-1 was assessed by virus-induced cytopathic effects (syncytia formation) and by quantification of cell free p24 viral protein in the culture supernatants. Measurements of HIV-1 p24^gag concentration in the culture supernatants were achieved by ELISA (ALLIANCE® HIV-1 p24 kit, Perkin Elmer, life sciences, USA).

Compound	toxicity on cells
C[C@H](NC(=O)[C@H](CCCNC(=N)N)NC(=O)CNC(=O)[C@@H]1CCCN1C(=O)CN)C(=O)N[C@@H](Cc1ccccc1)C(=O)NCCCC[C@H](NC(=O)[C@H](Cc1ccccc1)NC(=O)[C@H](C)NC(=O)[C@H](CCCNC(=N)N)NC(=O)CNC(=O)[C@@H]1CCCN1C(=O)CN)C(=O)NCCCC[C@H](NC(=O)[C@H](CCCCNC(=O)[C@H](Cc1ccccc1)NC(=O)[C@H](C)NC(=O)[C@H](CCCNC(=N)N)NC(=O)CNC(=O)[C@@H]1CCCN1C(=O)CN)NC(=O)[C@H](Cc1ccccc1)NC(=O)[C@H](C)NC(=O)[C@H](CCCNC(=N)N)NC(=O)CNC(=O)[C@@H]1CCCN1C(=O)CN)C(=O)NCCCC[C@H](NC(=O)[C@H](CCCCNC(=O)[C@H](CCCCNC(=O)[C@H](Cc1ccccc1)NC(=O)[C@H](C)NC(=O)[C@H](CCCNC(=N)N)NC(=O)CNC(=O)[C@@H]1CCCN1C(=O)CN)NC(=O)[C@H](Cc1ccccc1)NC(=O)[C@H](C)NC(=O)[C@H](CCCNC(=N)N)NC(=O)CNC(=O)[C@@H]1CCCN1C(=O)CN)NC(=O)[C@H](CCCCNC(=O)[C@H](Cc1ccccc1)NC(=O)[C@H](C)NC(=O)[C@H](CCCNC(=N)N)NC(=O)CNC(=O)[C@@H]1CCCN1C(=O)CN)NC(=O)[C@H](Cc1ccccc1)NC(=O)[C@H](C)NC(=O)[C@H](CCCNC(=N)N)NC(=O)CNC(=O)[C@@H]1CCCN1C(=O)CN)C(=O)NCCCCC(=O)O [S5, SPC3-(δ-aminovaleric acid)]	no toxicity
C[C@H](NC(=O)[C@H](CCCNC(=N)N)NC(=O)CNC(=O)[C@@H]1CCCN1C(=O)CN)C(=O)N[C@@H](Cc1ccccc1)C(=O)NCCCC[C@H](NC(=O)[C@H](Cc1ccccc1)NC(=O)[C@H](C)NC(=O)[C@H](CCCNC(=N)N)NC(=O)CNC(=O)[C@@H]1CCCN1C(=O)CN)C(=O)NCCCC[C@H](NC(=O)[C@H](CCCCNC(=O)[C@H](Cc1ccccc1)NC(=O)[C@H](C)NC(=O)[C@H](CCCNC(=N)N)NC(=O)CNC(=O)[C@@H]1CCCN1C(=O)CN)NC(=O)[C@H](Cc1ccccc1)NC(=O)[C@H](C)NC(=O)[C@H](CCCNC(=N)N)NC(=O)CNC(=O)[C@@H]1CCCN1C(=O)CN)C(=O)NCCCC[C@H](NC(=O)[C@H](CCCCNC(=O)[C@H](CCCCNC(=O)[C@H](Cc1ccccc1)NC(=O)[C@H](C)NC(=O)[C@H](CCCNC(=N)N)NC(=O)CNC(=O)[C@@H]1CCCN1C(=O)CN)NC(=O)[C@H](Cc1ccccc1)NC(=O)[C@H](C)NC(=O)[C@H](CCCNC(=N)N)NC(=O)CNC(=O)[C@@H]1CCCN1C(=O)CN)NC(=O)[C@H](CCCCNC(=O)[C@H](Cc1ccccc1)NC(=O)[C@H](C)NC(=O)[C@H](CCCNC(=N)N)NC(=O)CNC(=O)[C@@H]1CCCN1C(=O)CN)NC(=O)[C@H](Cc1ccccc1)NC(=O)[C@H](C)NC(=O)[C@H](CCCNC(=N)N)NC(=O)CNC(=O)[C@@H]1CCCN1C(=O)CN)C(=O)NCCCC(=O)O [S6, SPC3-(γ-aminobutyric acid)]	no toxicity
